How the values were obtained:
HCT-15 [1] = experiment: Cytotoxicity against human HCT15 cells by MTT assay; type: functional, cell-based
[2] = Inhibition of M-phase starfish oocytes CDK1/cyclin B using histone H1 as substrate after 30 mins in presence of ATP by scintillation counting method; parameters: species or system Asteroidea
[3] = Inhibition of porcine brain CK1-delta/epsilon using CSK peptide as substrate after 30 mins in presence of ATP by scintillation counting method; parameters: species or system Sus scrofa
BT-20 [4] = experiment: Growth inhibition of human BT20 cells at 100 uM by MTT assay relative to control; type: functional; conditions: read-out: GI
HEK293 = experiment: Cytotoxicity against HEK293 cells by MTT assay; type: cell-based; conditions: Homo sapiens
MIA PaCa-2 [5] = experiment: Growth inhibition of human MIAPaCa2 cells at 100 uM by MTT assay relative to control; type: functional; conditions: read-out: GI
ZR-75-1 [6] = experiment: Cytotoxicity against human ZR-75-1 cells by MTT assay; type: functional, cell-based
HCT-15 [7] = experiment: Growth inhibition of human HCT15 cells at 100 uM by MTT assay relative to control; type: functional; conditions: read-out: GI
Sus scrofa = species: Sus scrofa; experiment: Inhibition of porcine brain CK1-delta/epsilon at 10 uM using CSK peptide as substrate after 30 mins in presence of ATP by scintillation counting method relative to control
PANC-1 [8] = experiment: Cytotoxicity against human PANC1 cells by MTT assay; type: functional, cell-based
Asteroidea = experiment: Inhibition of M-phase starfish oocytes CDK1/cyclin B at 10 uM using histone H1 as substrate after 30 mins in presence of ATP by scintillation counting method relative to control
ZR-75-30 [9] = experiment: Cytotoxicity against human ZR-7530 cells by MTT assay; type: functional, cell-based
A549 [10] = experiment: Growth inhibition of human A549 cells at 100 uM by MTT assay relative to control; type: functional; conditions: read-out: GI
[11] = Growth inhibition of HEK293 cells at 100 uM by MTT assay relative to control; type: cell-based; conditions: human, read-out: GI
ZR-75-1 [12] = experiment: Growth inhibition of human ZR-75-1 cells at 100 uM by MTT assay relative to control; type: functional; conditions: read-out: GI
MDA-MB-231 [13] = experiment: Cytotoxicity against human MDA-MB-231 cells by MTT assay; type: functional, cell-based
BT-20 [14] = experiment: Cytotoxicity against human BT20 cells by MTT assay; type: functional, cell-based
A549 [15] = experiment: Cytotoxicity against human A549 cells by MTT assay; type: functional, cell-based
MCF7 [16] = experiment: Cytotoxicity against human MCF7 cells by MTT assay; type: functional, cell-based
[17] = biological target: Glycogen synthase kinase-3 (Sus scrofa) (UniProt B2LUN4+I6LNT8); experiment: Inhibition of porcine brain GSK-3 alpha/beta at 10 uM using YRRAAVPPSPSLSRHSSPHQpSEDEEE as substrate after 30 mins in presence of ATP by scintillation counting method relative to control
PANC-1 [18] = experiment: Growth inhibition of human PANC1 cells at 100 uM by MTT assay relative to control; type: functional; conditions: read-out: GI
[19] = biological target: Dual specificity protein kinase CLK1 (Mus musculus) (UniProt P22518); experiment: Inhibition of recombinant mouse GST-fused CLK1 expressed in Escherichia coli at 10 uM using RS peptide as substrate after 30 mins in presence of ATP by scintillation counting method relative to control
[20] = biological target: Glycogen synthase kinase-3 (Sus scrofa, UniProt B2LUN4+I6LNT8); experiment: Inhibition of porcine brain GSK-3 alpha/beta using YRRAAVPPSPSLSRHSSPHQpSEDEEE as substrate after 30 mins in presence of ATP by scintillation counting method
[21] = biological target: Dual specificity tyrosine-phosphorylation-regulated kinase 1A (Homo sapiens) (UniProt Q13627); experiment: Inhibition of recombinant full length human GST-fused DYRK1A expressed in Escherichia coli at 10 uM using RS peptide as substrate after 30 mins in presence of ATP by scintillation counting method relative to control
MDA-MB-468 [22] = experiment: Cytotoxicity against human MDA-MB-468 cells by MTT assay; type: functional, cell-based
[23] = biological target: Cyclin-dependent kinase 5/CDK5 activator 1 (Homo sapiens) (UniProt Q00535+Q15078); experiment: Inhibition of recombinant human CDK5/p25 expressed in Escherichia coli at 10 uM using histone H1 as substrate after 30 mins in presence of ATP by scintillation counting method relative to control
[24] = biological target: CDK9/cyclin T1 (Homo sapiens) (UniProt O60563+P50750); experiment: Inhibition of recombinant human CDK9/cyclin T expressed in insect cells at 10 uM using YSPTSPSYSPTSPSYSPTSPSKKKK as substrate after 30 mins in presence of ATP by scintillation counting method relative to control
MIA PaCa-2 [25] = experiment: Cytotoxicity against human MIAPaCa2 cells by MTT assay; type: functional, cell-based
MCF7 [26] = experiment: Growth inhibition of human MCF7 cells at 100 uM by MTT assay relative to control; type: functional; conditions: read-out: GI
[27] = biological target: Dual specificity protein kinase CLK1 (Mus musculus, UniProt P22518); experiment: Inhibition of recombinant mouse GST-fused CLK1 expressed in Escherichia coli using RS peptide as substrate after 30 mins in presence of ATP by scintillation counting method
[28] = biological target: CDK2/Cyclin A2 (Homo sapiens) (UniProt P24941+P20248); experiment: Inhibition of recombinant human CDK2/cyclin A at 10 uM using histone H1 as substrate after 30 mins in presence of ATP by scintillation counting method relative to control; type: protein-complex assay
DU-145 = experiment: Growth inhibition of human DU145 cells at 100 uM by MTT assay relative to control; type: functional; conditions: read-out: GI
MDA-MB-468 [29] = experiment: Growth inhibition of human MDA-MB-468 cells at 100 uM by MTT assay relative to control; type: functional; conditions: read-out: GI
ZR-75-30 [30] = experiment: Growth inhibition of human ZR-7530 cells at 100 uM by MTT assay relative to control; type: functional; conditions: read-out: GI
MDA-MB-231 [31] = experiment: Growth inhibition of human MDA-MB-231 cells at 100 uM by MTT assay relative to control; type: functional; conditions: read-out: GI
CDK2/Cyclin A2 = CDK2/Cyclin A2 (Homo sapiens, UniProt P24941); experiment: Inhibition of recombinant human CDK2/cyclin A using histone H1 as substrate after 30 mins in presence of ATP by scintillation counting method; type: protein-complex assay

Dual specificity protein kinase CLK1 (Mus musculus), sequence (P22518 whole entry, looked up, the tested form may be a part): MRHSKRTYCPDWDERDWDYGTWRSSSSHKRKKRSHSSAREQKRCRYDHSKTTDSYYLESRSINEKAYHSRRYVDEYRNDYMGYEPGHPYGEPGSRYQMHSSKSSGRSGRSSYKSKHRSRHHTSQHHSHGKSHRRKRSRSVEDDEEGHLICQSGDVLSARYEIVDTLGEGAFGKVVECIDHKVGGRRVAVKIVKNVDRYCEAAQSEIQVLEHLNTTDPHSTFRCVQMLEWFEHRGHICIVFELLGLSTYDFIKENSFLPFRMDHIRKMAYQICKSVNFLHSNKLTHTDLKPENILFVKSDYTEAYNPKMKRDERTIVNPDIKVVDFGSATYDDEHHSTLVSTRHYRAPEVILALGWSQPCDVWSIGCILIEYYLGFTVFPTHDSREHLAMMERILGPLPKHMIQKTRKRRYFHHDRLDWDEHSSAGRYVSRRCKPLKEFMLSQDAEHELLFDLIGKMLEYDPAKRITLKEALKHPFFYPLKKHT
Dual specificity protein kinase CLK1, sequence (P22518 whole entry, the tested form may be a part): as the sequence (P22518 whole entry, looked up, the tested form may be a part) above
Cyclin-dependent kinase 5/CDK5 activator 1 (Homo sapiens), sequence (Q00535 whole entry): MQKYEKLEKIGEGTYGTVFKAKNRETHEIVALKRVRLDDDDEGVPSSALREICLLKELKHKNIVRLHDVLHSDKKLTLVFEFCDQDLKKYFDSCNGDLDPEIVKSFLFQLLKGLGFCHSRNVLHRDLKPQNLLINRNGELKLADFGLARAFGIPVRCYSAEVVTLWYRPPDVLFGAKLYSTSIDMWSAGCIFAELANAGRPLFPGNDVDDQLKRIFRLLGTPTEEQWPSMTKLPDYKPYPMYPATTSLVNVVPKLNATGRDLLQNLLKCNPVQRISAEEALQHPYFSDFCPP
Cyclin-dependent kinase 5/CDK5 activator 1 (Homo sapiens), sequence (Q15078 99-307 partner limits assumed): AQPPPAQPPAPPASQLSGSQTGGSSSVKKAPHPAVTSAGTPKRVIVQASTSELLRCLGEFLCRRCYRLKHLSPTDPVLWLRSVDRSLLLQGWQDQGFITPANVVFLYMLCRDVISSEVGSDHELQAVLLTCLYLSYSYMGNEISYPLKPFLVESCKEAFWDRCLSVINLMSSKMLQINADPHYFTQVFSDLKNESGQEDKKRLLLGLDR

COc1cc2ncnc(Nc3cc(-c4ccc(F)cc4)[nH]n3)c2cc1OC
1.4 µM: IC50 [3]
> 10 µM: IC50 [2] | IC50 [20] | IC50 [27] | IC50 (CDK2/Cyclin A2)
> 100 µM: IC50 (HCT-15 [1]) | IC50 (HEK293) | IC50 (ZR-75-1 [6]) | IC50 (ZR-75-30 [9]) | IC50 (MDA-MB-231 [13]) | IC50 (BT-20 [14]) | IC50 (A549 [15]) | IC50 (MCF7 [16]) | IC50 (MDA-MB-468 [22]) | IC50 (MIA PaCa-2 [25])
69.4 µM: IC50 (PANC-1 [8])
> 50%: inhibition of growth at 100 µM (BT-20 [4]) | inhibition of growth at 100 µM (MIA PaCa-2 [5]) | inhibition of growth at 100 µM (HCT-15 [7]) | inhibition (Sus scrofa) | inhibition (Asteroidea) | inhibition of growth at 100 µM (A549 [10]) | inhibition at 100 µM [11] | inhibition of growth at 100 µM (ZR-75-1 [12]) | inhibition [17] | inhibition of growth at 100 µM (PANC-1 [18]) | inhibition [19] | inhibition [21] | inhibition [23] | inhibition [24] | inhibition of growth at 100 µM (MCF7 [26]) | inhibition [28] | inhibition of growth at 100 µM (DU-145) | inhibition of growth at 100 µM (MDA-MB-468 [29]) | inhibition of growth at 100 µM (ZR-75-30 [30]) | inhibition of growth at 100 µM (MDA-MB-231 [31])

COc1cc2ncnc(Nc3cc(-c4ccc(Cl)cc4)[nH]n3)c2cc1OC
98.2 µM: IC50 (HCT-15 [1])
79.5 µM: IC50 (MDA-MB-468 [22])
> 10 µM: IC50 [2] | IC50 [20] | IC50 [27] | IC50 (CDK2/Cyclin A2)
< 100 µM: IC50 (MDA-MB-231 [13]) | IC50 (MIA PaCa-2 [25])
> 50%: inhibition of growth at 100 µM (BT-20 [4]) | inhibition of growth at 100 µM (MIA PaCa-2 [5]) | inhibition of growth at 100 µM (HCT-15 [7]) | inhibition (Sus scrofa) | inhibition (Asteroidea) | inhibition of growth at 100 µM (A549 [10]) | inhibition at 100 µM [11] | inhibition of growth at 100 µM (ZR-75-1 [12]) | inhibition [17] | inhibition of growth at 100 µM (PANC-1 [18]) | inhibition [19] | inhibition [21] | inhibition [23] | inhibition [24] | inhibition of growth at 100 µM (MCF7 [26]) | inhibition [28] | inhibition of growth at 100 µM (DU-145) | inhibition of growth at 100 µM (MDA-MB-468 [29]) | inhibition of growth at 100 µM (ZR-75-30 [30]) | inhibition of growth at 100 µM (MDA-MB-231 [31])
< 10 µM: IC50 [3]
91.5 µM: IC50 (ZR-75-30 [9])
> 100 µM: IC50 (ZR-75-1 [6]) | IC50 (PANC-1 [8]) | IC50 (BT-20 [14]) | IC50 (A549 [15]) | IC50 (MCF7 [16])
81.2 µM: IC50 (HEK293)

COc1ccc(-c2cc(Nc3ncnc4cc(OC)c(OC)cc34)n[nH]2)cc1
45.3 µM: IC50 (MDA-MB-468 [22])
< 10 µM: IC50 [3]
> 100 µM: IC50 (HEK293) | IC50 (ZR-75-1 [6]) | IC50 (PANC-1 [8]) | IC50 (BT-20 [14]) | IC50 (A549 [15]) | IC50 (MCF7 [16])
> 10 µM: IC50 [2] | IC50 [20] | IC50 [27] | IC50 (CDK2/Cyclin A2)
> 50%: inhibition of growth at 100 µM (BT-20 [4]) | inhibition of growth at 100 µM (MIA PaCa-2 [5]) | inhibition of growth at 100 µM (HCT-15 [7]) | inhibition (Sus scrofa) | inhibition (Asteroidea) | inhibition of growth at 100 µM (A549 [10]) | inhibition at 100 µM [11] | inhibition of growth at 100 µM (ZR-75-1 [12]) | inhibition [17] | inhibition of growth at 100 µM (PANC-1 [18]) | inhibition [19] | inhibition [21] | inhibition [23] | inhibition [24] | inhibition of growth at 100 µM (MCF7 [26]) | inhibition [28] | inhibition of growth at 100 µM (DU-145) | inhibition of growth at 100 µM (MDA-MB-468 [29]) | inhibition of growth at 100 µM (ZR-75-30 [30]) | inhibition of growth at 100 µM (MDA-MB-231 [31])
< 100 µM: IC50 (HCT-15 [1]) | IC50 (ZR-75-30 [9]) | IC50 (MDA-MB-231 [13]) | IC50 (MIA PaCa-2 [25])

COc1cc2ncnc(Nc3cc(-c4ccccc4)n(-c4ccccc4)n3)c2cc1OC
> 50%: inhibition of growth at 100 µM (BT-20 [4]) | inhibition of growth at 100 µM (MIA PaCa-2 [5]) | inhibition of growth at 100 µM (HCT-15 [7]) | inhibition (Sus scrofa) | inhibition (Asteroidea) | inhibition of growth at 100 µM (A549 [10]) | inhibition at 100 µM [11] | inhibition of growth at 100 µM (ZR-75-1 [12]) | inhibition [17] | inhibition of growth at 100 µM (PANC-1 [18]) | inhibition [19] | inhibition [21] | inhibition [23] | inhibition [24] | inhibition of growth at 100 µM (MCF7 [26]) | inhibition [28] | inhibition of growth at 100 µM (DU-145) | inhibition of growth at 100 µM (MDA-MB-468 [29]) | inhibition of growth at 100 µM (ZR-75-30 [30]) | inhibition of growth at 100 µM (MDA-MB-231 [31])
> 10 µM: IC50 [2] | IC50 [20] | IC50 [27] | IC50 (CDK2/Cyclin A2)
58.8 µM: IC50 (ZR-75-30 [9])
< 10 µM: IC50 [3]
< 100 µM: IC50 (HCT-15 [1]) | IC50 (A549 [15])
72.9 µM: IC50 (MDA-MB-231 [13]) | IC50 (MIA PaCa-2 [25])
> 100 µM: IC50 (HEK293) | IC50 (ZR-75-1 [6]) | IC50 (BT-20 [14]) | IC50 (MCF7 [16]) | IC50 (MDA-MB-468 [22])
70.7 µM: IC50 (PANC-1 [8])
